Test results as given in US20180360090A1, “NUTRITIONAL COMPOSITIONS AND INFANT FORMULAS TO PROMOTE MYELINATION IN THE BRAIN” (NESTEC S.A., priority 2015, published 2018).

Tested on: brain myelination (myelin water fraction)
Assay: Cross-sectional correlation analysis (GLM) of infant formula nutrient composition against brain myelination, measured as MWF by mcDESPOT MRI
Format: in vivo, human
Conditions: children up to 5 years fed different infant formulas during infancy; voxel-wise correlations, p<0.05 corrected
Procedure: MRI brain scans of infants and children between 0 and 5 years were acquired using a white matter imaging technique. This technique provides a quantitative measure, the Myelin Water Fraction (MWF), which is a surrogate marker of myelin content. When mapped as a function of time across early childhood, myelination trajectories can be generated.
Infant formula composition: six infant formulas fed to infants participating in study were analyzed for their composition/level of myelin-relevant nutrients.
Infants included in this study were drawn from a larger longitudinal study of normal brain and behavioral development: the Brown university Assessment of Myelination and Behavior Across Maturation (BAMBAM). To focus on neurotypical development, children with known potential risk factors for learning, neurologic, or psychiatric disorders were specifically excluded during recruitment and enrollment. Thus, children with in utero alcohol or illicit substance exposure, premature (<37 weeks gestation) or multiple birth, fetal ultrasound abnormalities, complicated pregnancy (e.g., preeclampsia), APGAR scores <8, NICU admission, neurological disorder (e.g., head injury, epilepsy), psychiatric or developmental disorders in the infant, parents or siblings (including maternal depression requiring medication) were excluded. Ongoing screenings, such as the MCAT for autism, or CBCL for behavioral problems, were further used to remove enrolled children with clinically concerning behaviors or overt medical conditions (such as autism spectrum disorders).
A combination of retrospective and prospective data were acquired from parents via detailed medical histories and parental interview on type of infant formula used, percentage of breastfeeding to formula feeding, and length of exclusive breastfeeding. This information was updated at each study visit, which occurred approximately every 6 months for children under 2 years, and yearly for older children. Using this information, children were categorized into one of 2 groups: #1. Exclusively formula-fed; and #2. Exclusively breastfed for at least 90 days (3 months). Children who were fed a combination of breastmilk and formula within 3 months were excluded from our analysis. Infants within the exclusively formula-fed group were further sub-divided based on parental reports of the main infant formula used throughout the first 3 months. Main formula was defined as that given 90% of the time or more (in the case were parents used an alternate brand during vacation, for example).
Using these criteria, 94 exclusively formula-fed infants and young children were selected into group #1. These included 13 children who received formula #2; 28 who received formula #5; 8 who received formula #3; 39 who received formula #4; 5 who received formula #1 and 1 who received formula #6. A sample of 52 exclusively breast-fed infants were also selected and matched to the over formula-fed group with regards to mean age, gestation duration, birth weight, male:female ratio, ethnicity ratio, maternal education, family size, and number of languages spoken in the home (in addition to English).
Each infant was scanned using the mcDESPOT (multicomponent Driven Equilibrium Single Pulse Observation of T1 and T2) white matter imaging technique Deoni et al. (Magn. Reson. Med. 2008, 60:1372-1387), which provides a quantitative measure of the myelin water fraction (MWF) at each imaging point throughout the brain. All infants were scanned during natural (i.e. non-sedated) sleep using acoustically-muffled mcDESPOT imaging protocols. Total imaging times ranged from 19 minutes for the youngest toddlers to 24 minutes for the older 4 year-old children.
All data were acquired on a Siemens 3T Tim Trio scanner equipped with a 12 channel head RF array.

Molecule	nutritional drivers for myelination (final general linear model)
Zinc	identified drivers
Iron	identified drivers
Vitamin B12	identified drivers
[Ca] [Calcium]	identified drivers
sphingomyelin	identified drivers
[P] [Phosphorus]	identified drivers
C[N+](C)(C)CCO [Choline]	identified drivers
[Mg] [Magnesium]	identified drivers

Same assay, conditions: children up to 5 years fed different infant formulas; in particular in the visual cortex

Molecule	association with myelination (myelin water fraction) over time in the brain
CCCCC/C=C\C/C=C\C/C=C\C/C=C\CCCC(=O)O [ARA, arachidonic acid]	significant association with myelination
